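Tested at 5 concentrations; 48 h exposure; 96-well plates; endpoints linearly interpolated, else capped at highest concentration. Abbreviation: GI50, concentration required for 50% inhibition of growth. TGI is the concentration that stops growth completely.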
Tested on: NCI-H226 lung
Experiment: NCI anticancer screen, dose series, 48 h

Structure (SMILES) | TGI [µM] | GI50 [µM]
O=C(O)C(CS)N=c1c2ccccc2n(O)c2ccccc12 (stereo unspecified) | > 100 | 
CC(=O)CNC(=O)OC(C)(C)C | > 100 | 
COC(=O)CN1CCSC1=NC#N | > 100 | 
CCOC(=O)[C]1([Bi]([CH3])[CH3])N=NC(C(=O)OC)=C1C(=O)OC (stereo unspecified) | 41.4 | 20.6

Tested on: NCI-H23 lung
Experiment: NCI anticancer screen, dose series, 48 h

Structure (SMILES) | TGI [µM] | GI50 [µM]
O=C1C2c3[nH]c4ccccc4c3C3CCCCCCC3C2C(=O)N1c1ccccc1 (stereo unspecified) | 70.2 | 
CSC(C1c2ccccc2N(c2ccc(C)cc2)C2=NC(=O)N(C)C(=O)C21Cl)S(=O)(=O)c1ccc(C)cc1 (stereo unspecified) | 46.9 | 
O/N=C/C1c2ccccc2-c2ccccc21 | 37.6 | 
O=C(O)C(CS)N=c1c2ccccc2n(O)c2ccccc12 (stereo unspecified) | > 100 | 
CC(=O)CNC(=O)OC(C)(C)C | > 100 | 
COC(=O)CN1CCSC1=NC#N | > 100 | 
CCOC(=O)[C]1([Bi]([CH3])[CH3])N=NC(C(=O)OC)=C1C(=O)OC (stereo unspecified) | 35 | 18

Tested on: NCI-H460 lung
Experiment: NCI anticancer screen, dose series, 48 h

Structure (SMILES) | TGI [µM] | GI50 [µM]
O=C1C2c3[nH]c4ccccc4c3C3CCCCCCC3C2C(=O)N1c1ccccc1 (stereo unspecified) | 18.6 | 
CSC(C1c2ccccc2N(c2ccc(C)cc2)C2=NC(=O)N(C)C(=O)C21Cl)S(=O)(=O)c1ccc(C)cc1 (stereo unspecified) | 64.8 | 
O/N=C/C1c2ccccc2-c2ccccc21 | 36 | 
O=C(O)C(CS)N=c1c2ccccc2n(O)c2ccccc12 (stereo unspecified) | > 100 | 
CC(=O)CNC(=O)OC(C)(C)C | > 100 | 
COC(=O)CN1CCSC1=NC#N | > 100 | 
CCOC(=O)[C]1([Bi]([CH3])[CH3])N=NC(C(=O)OC)=C1C(=O)OC (stereo unspecified) | > 100 | > 100

Tested on: NCI-H522 lung
Experiment: NCI anticancer screen, dose series, 48 h

Structure (SMILES) | TGI [µM]
CSC(C1c2ccccc2N(c2ccc(C)cc2)C2=NC(=O)N(C)C(=O)C21Cl)S(=O)(=O)c1ccc(C)cc1 (stereo unspecified) | 31.9
O/N=C/C1c2ccccc2-c2ccccc21 | 33.4
O=C(O)C(CS)N=c1c2ccccc2n(O)c2ccccc12 (stereo unspecified) | > 100
CC(=O)CNC(=O)OC(C)(C)C | > 100
COC(=O)CN1CCSC1=NC#N | > 100

Tested on: NCI/ADR-RES ovarian
Experiment: NCI anticancer screen, dose series, 48 h

Structure (SMILES) | TGI [µM]
O/N=C/C1c2ccccc2-c2ccccc21 | 33.8

Tested on: OVCAR-3 ovarian
Experiment: NCI anticancer screen, dose series, 48 h

Structure (SMILES) | TGI [µM] | GI50 [µM]
O=C1C2c3[nH]c4ccccc4c3C3CCCCCCC3C2C(=O)N1c1ccccc1 (stereo unspecified) | 17.2 | 
CSC(C1c2ccccc2N(c2ccc(C)cc2)C2=NC(=O)N(C)C(=O)C21Cl)S(=O)(=O)c1ccc(C)cc1 (stereo unspecified) | 30.9 | 
O/N=C/C1c2ccccc2-c2ccccc21 | 34.1 | 
O=C(O)C(CS)N=c1c2ccccc2n(O)c2ccccc12 (stereo unspecified) | > 100 | 
CC(=O)CNC(=O)OC(C)(C)C | > 100 | 
CCOC(=O)[C]1([Bi]([CH3])[CH3])N=NC(C(=O)OC)=C1C(=O)OC (stereo unspecified) | 31.7 | 16.5

Tested on: OVCAR-4 ovarian
Experiment: NCI anticancer screen, dose series, 48 h

Structure (SMILES) | TGI [µM] | GI50 [µM]
O=C1C2c3[nH]c4ccccc4c3C3CCCCCCC3C2C(=O)N1c1ccccc1 (stereo unspecified) | 15.4 | 
CSC(C1c2ccccc2N(c2ccc(C)cc2)C2=NC(=O)N(C)C(=O)C21Cl)S(=O)(=O)c1ccc(C)cc1 (stereo unspecified) | 34.6 | 
O=C(O)C(CS)N=c1c2ccccc2n(O)c2ccccc12 (stereo unspecified) | > 100 | 
CC(=O)CNC(=O)OC(C)(C)C | > 100 | 
CCOC(=O)[C]1([Bi]([CH3])[CH3])N=NC(C(=O)OC)=C1C(=O)OC (stereo unspecified) | > 100 | 42.4

Tested on: OVCAR-5 ovarian
Experiment: NCI anticancer screen, dose series, 48 h

Structure (SMILES) | TGI [µM] | GI50 [µM]
CSC(C1c2ccccc2N(c2ccc(C)cc2)C2=NC(=O)N(C)C(=O)C21Cl)S(=O)(=O)c1ccc(C)cc1 (stereo unspecified) | 83.2 | 
O=C(O)C(CS)N=c1c2ccccc2n(O)c2ccccc12 (stereo unspecified) | > 100 | 
CC(=O)CNC(=O)OC(C)(C)C | > 100 | 
COC(=O)CN1CCSC1=NC#N | > 100 | 
CCOC(=O)[C]1([Bi]([CH3])[CH3])N=NC(C(=O)OC)=C1C(=O)OC (stereo unspecified) | > 10 | > 10

Tested on: OVCAR-8 ovarian
Experiment: NCI anticancer screen, dose series, 48 h

Structure (SMILES) | TGI [µM] | GI50 [µM]
O=C1C2c3[nH]c4ccccc4c3C3CCCCCCC3C2C(=O)N1c1ccccc1 (stereo unspecified) | 14.7 | 
CSC(C1c2ccccc2N(c2ccc(C)cc2)C2=NC(=O)N(C)C(=O)C21Cl)S(=O)(=O)c1ccc(C)cc1 (stereo unspecified) | > 100 | 
O/N=C/C1c2ccccc2-c2ccccc21 | 41.5 | 
O=C(O)C(CS)N=c1c2ccccc2n(O)c2ccccc12 (stereo unspecified) | > 100 | 
CC(=O)CNC(=O)OC(C)(C)C | > 100 | 
CCOC(=O)[C]1([Bi]([CH3])[CH3])N=NC(C(=O)OC)=C1C(=O)OC (stereo unspecified) | 42.3 | 19.2

Tested on: PC-3 prostate
Experiment: NCI anticancer screen, dose series, 48 h

Structure (SMILES) | TGI [µM]
O/N=C/C1c2ccccc2-c2ccccc21 | 36.9

Tested on: RPMI-8226 leukemia
Experiment: NCI anticancer screen, dose series, 48 h

Structure (SMILES) | TGI [µM] | GI50 [µM]
O=C1C2c3[nH]c4ccccc4c3C3CCCCCCC3C2C(=O)N1c1ccccc1 (stereo unspecified) | 68.3 | 
CSC(C1c2ccccc2N(c2ccc(C)cc2)C2=NC(=O)N(C)C(=O)C21Cl)S(=O)(=O)c1ccc(C)cc1 (stereo unspecified) | 57 | 
O/N=C/C1c2ccccc2-c2ccccc21 | 52.8 | 
O=C(O)C(CS)N=c1c2ccccc2n(O)c2ccccc12 (stereo unspecified) | > 100 | 
CCOC(=O)[C]1([Bi]([CH3])[CH3])N=NC(C(=O)OC)=C1C(=O)OC (stereo unspecified) | 67.2 | 21.5

Tested on: RXF 393 renal
Experiment: NCI anticancer screen, dose series, 48 h

Structure (SMILES) | TGI [µM]
O=C1C2c3[nH]c4ccccc4c3C3CCCCCCC3C2C(=O)N1c1ccccc1 (stereo unspecified) | 23.8
O/N=C/C1c2ccccc2-c2ccccc21 | 41.5
CC(=O)CNC(=O)OC(C)(C)C | > 100
COC(=O)CN1CCSC1=NC#N | > 100

Tested on: RXF-631 renal
Experiment: NCI anticancer screen, dose series, 48 h

Structure (SMILES) | TGI [µM] | GI50 [µM]
O=C1C2c3[nH]c4ccccc4c3C3CCCCCCC3C2C(=O)N1c1ccccc1 (stereo unspecified) | 17.6 | 
O=C(O)C(CS)N=c1c2ccccc2n(O)c2ccccc12 (stereo unspecified) | > 100 | 
CCOC(=O)[C]1([Bi]([CH3])[CH3])N=NC(C(=O)OC)=C1C(=O)OC (stereo unspecified) | 31.4 | 17.2

Tested on: SF-268 CNS
Experiment: NCI anticancer screen, dose series, 48 h

Structure (SMILES) | TGI [µM] | GI50 [µM]
O=C1C2c3[nH]c4ccccc4c3C3CCCCCCC3C2C(=O)N1c1ccccc1 (stereo unspecified) | > 100 | 
CSC(C1c2ccccc2N(c2ccc(C)cc2)C2=NC(=O)N(C)C(=O)C21Cl)S(=O)(=O)c1ccc(C)cc1 (stereo unspecified) | 62.5 | 
O/N=C/C1c2ccccc2-c2ccccc21 | 37.6 | 
O=C(O)C(CS)N=c1c2ccccc2n(O)c2ccccc12 (stereo unspecified) | > 100 | 
CC(=O)CNC(=O)OC(C)(C)C | > 100 | 
COC(=O)CN1CCSC1=NC#N | > 100 | 
CCOC(=O)[C]1([Bi]([CH3])[CH3])N=NC(C(=O)OC)=C1C(=O)OC (stereo unspecified) | 31.7 | 17.2

Tested on: SF-295 CNS
Experiment: NCI anticancer screen, dose series, 48 h

Structure (SMILES) | TGI [µM] | GI50 [µM]
O=C1C2c3[nH]c4ccccc4c3C3CCCCCCC3C2C(=O)N1c1ccccc1 (stereo unspecified) | 12.8 | 
CSC(C1c2ccccc2N(c2ccc(C)cc2)C2=NC(=O)N(C)C(=O)C21Cl)S(=O)(=O)c1ccc(C)cc1 (stereo unspecified) | 62.4 | 
O/N=C/C1c2ccccc2-c2ccccc21 | 53.4 | 
O=C(O)C(CS)N=c1c2ccccc2n(O)c2ccccc12 (stereo unspecified) | > 100 | 
CC(=O)CNC(=O)OC(C)(C)C | > 100 | 
CCOC(=O)[C]1([Bi]([CH3])[CH3])N=NC(C(=O)OC)=C1C(=O)OC (stereo unspecified) | > 100 | > 100

Tested on: SF-539 CNS
Experiment: NCI anticancer screen, dose series, 48 h

Structure (SMILES) | TGI [µM] | GI50 [µM]
O=C1C2c3[nH]c4ccccc4c3C3CCCCCCC3C2C(=O)N1c1ccccc1 (stereo unspecified) | 30.5 | 
CSC(C1c2ccccc2N(c2ccc(C)cc2)C2=NC(=O)N(C)C(=O)C21Cl)S(=O)(=O)c1ccc(C)cc1 (stereo unspecified) | 34.3 | 
O/N=C/C1c2ccccc2-c2ccccc21 | 31 | 
CC(=O)CNC(=O)OC(C)(C)C | > 100 | 
CCOC(=O)[C]1([Bi]([CH3])[CH3])N=NC(C(=O)OC)=C1C(=O)OC (stereo unspecified) | 32.3 | 18.1

Tested on: SK-MEL-2 melanoma
Experiment: NCI anticancer screen, dose series, 48 h

Structure (SMILES) | TGI [µM] | GI50 [µM]
CSC(C1c2ccccc2N(c2ccc(C)cc2)C2=NC(=O)N(C)C(=O)C21Cl)S(=O)(=O)c1ccc(C)cc1 (stereo unspecified) | 38.9 | 
O/N=C/C1c2ccccc2-c2ccccc21 | 36.1 | 
O=C(O)C(CS)N=c1c2ccccc2n(O)c2ccccc12 (stereo unspecified) | > 100 | 
CC(=O)CNC(=O)OC(C)(C)C | > 100 | 
CCOC(=O)[C]1([Bi]([CH3])[CH3])N=NC(C(=O)OC)=C1C(=O)OC (stereo unspecified) | 33.7 | 18.3

Tested on: SK-MEL-28 melanoma
Experiment: NCI anticancer screen, dose series, 48 h

Structure (SMILES) | TGI [µM]
O=C1C2c3[nH]c4ccccc4c3C3CCCCCCC3C2C(=O)N1c1ccccc1 (stereo unspecified) | 43.7
